Read-outs that look alike come from different tables or passages of the source.
How the values were obtained:
NMDA receptor = assay: Inhibition of NMDA/glycine-induced increases in intracellular calcium in cultured rat cerebellar granule cells (RCGC); assay type: cell-based; conditions: NMDA/glycine-induced increases in intracellular calcium, cultured rat cerebellar granule cells; read-out: IC50 (μM) vs. NMDA
[1] = molecular target: NMDA receptor-ionophore complex (site labeled by [3H]MK-801); assay: Inhibition of [3H]MK-801 binding in rat cortical/hippocampal washed membrane preparations; conditions: read-out: IC50 (μM) vs. [3H]MK-801; rat cortical/hippocampal washed membranes
[2] = tested on: maximal electroshock-induced seizures; assay: Maximal electroshock-induced seizures in mice; assay type: in vivo; conditions: Mus musculus, ip; mice
seizure threshold = assay: i.v. Metrazol test (seizure threshold) in mice; assay type: in vivo
in vivo = conditions: mouse, in vivo
Procedure: In this assay, Frings and CF1 mice were injected with test compound and placed on a knurled rod which rotated at a speed of 6 rpm. The ability of the mice to maintain equilibrium for long periods of time was determined; those mice that were unable to maintain equilibrium on the rotorod for 1 min in each of 3 trials were considered impaired.

L-type calcium channel = tested on: T1, L-type calcium channel; assay: Inhibition of KCl depolarization-induced increases in intracellular calcium in cultured rat cerebellar granule cells; assay type: cell-based; conditions: cultured rat cerebellar granule cells; read-out: L-type calcium channel: estimated IC50, KCl depolarization-induced increases in intracellular calcium
T1 construct: L-type calcium channel: estimated IC50, KCl depolarization-induced increases in intracellular calcium; other: cultured
From the text: The ability of arylalkylamines to inhibit dihydropyridine-sensitive Ca^2+ channels was examined in cerebellar granule cells and a rat aortic smooth muscle cell line, A7r5 cells.

[3] = tested on: central muscarinic cholinergic receptor; assay type: binding, rat
dopamine uptake site = molecular target: T2, dopamine uptake site (Cavia porcellus, UniProt H0WCX4); assay: Dopamine uptake binding assay: [3H]WIN-35,428 binding to guinea pig striatal membranes
T2 construct: from tissue; host or cells: guinea pig striatal membranes (per the assay title)
T2 sequence (H0WCX4 1-619): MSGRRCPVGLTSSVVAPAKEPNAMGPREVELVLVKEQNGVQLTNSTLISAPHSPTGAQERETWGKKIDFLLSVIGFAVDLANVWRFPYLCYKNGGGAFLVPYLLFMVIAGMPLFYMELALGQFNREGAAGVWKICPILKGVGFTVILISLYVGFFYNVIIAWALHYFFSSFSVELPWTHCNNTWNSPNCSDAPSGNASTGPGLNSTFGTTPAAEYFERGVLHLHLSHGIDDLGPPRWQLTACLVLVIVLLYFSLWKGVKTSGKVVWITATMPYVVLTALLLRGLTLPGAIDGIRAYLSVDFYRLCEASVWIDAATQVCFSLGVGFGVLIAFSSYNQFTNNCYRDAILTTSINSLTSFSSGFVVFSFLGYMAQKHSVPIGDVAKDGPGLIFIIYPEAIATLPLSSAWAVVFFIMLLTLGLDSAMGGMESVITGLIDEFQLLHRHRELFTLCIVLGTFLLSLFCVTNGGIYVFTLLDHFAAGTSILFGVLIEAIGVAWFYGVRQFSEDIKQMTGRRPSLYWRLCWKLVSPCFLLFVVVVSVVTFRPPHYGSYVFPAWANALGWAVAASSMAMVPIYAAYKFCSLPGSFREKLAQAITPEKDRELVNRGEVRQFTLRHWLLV

[4] = molecular target: T3, norepinephrine uptake site (Rattus norvegicus, UniProt Q63380); assay: Norepinephrine uptake binding assay: [3H]desipramine binding to rat cortical membranes
T3 construct: from tissue; host or cells: rat cortical membranes (per the assay title)
T3 sequence (Q63380 1-617): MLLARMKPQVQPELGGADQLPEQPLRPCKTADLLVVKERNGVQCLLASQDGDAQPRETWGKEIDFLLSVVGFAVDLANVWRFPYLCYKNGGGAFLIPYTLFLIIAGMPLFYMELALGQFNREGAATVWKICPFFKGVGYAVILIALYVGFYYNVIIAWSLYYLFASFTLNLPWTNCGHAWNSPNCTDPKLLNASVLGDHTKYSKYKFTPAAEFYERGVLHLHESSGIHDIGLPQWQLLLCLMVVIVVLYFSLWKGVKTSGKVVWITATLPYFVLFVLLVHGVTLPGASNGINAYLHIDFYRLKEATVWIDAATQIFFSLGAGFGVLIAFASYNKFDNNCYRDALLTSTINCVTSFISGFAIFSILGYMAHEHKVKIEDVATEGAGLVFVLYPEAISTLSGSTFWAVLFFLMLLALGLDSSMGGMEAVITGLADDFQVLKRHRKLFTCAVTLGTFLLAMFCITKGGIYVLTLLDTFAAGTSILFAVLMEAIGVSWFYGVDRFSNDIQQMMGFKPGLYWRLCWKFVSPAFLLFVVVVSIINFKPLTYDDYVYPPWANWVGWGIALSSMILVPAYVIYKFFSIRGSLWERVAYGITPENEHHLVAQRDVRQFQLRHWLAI

serotonin uptake site = molecular target: T4, serotonin uptake site (Rattus norvegicus, UniProt P31652); assay: Serotonin uptake binding assay: [3H]citalopram binding to rat forebrain membranes
T4 construct: from tissue; host or cells: rat forebrain membranes (per the assay title)
T4 sequence (P31652 whole entry): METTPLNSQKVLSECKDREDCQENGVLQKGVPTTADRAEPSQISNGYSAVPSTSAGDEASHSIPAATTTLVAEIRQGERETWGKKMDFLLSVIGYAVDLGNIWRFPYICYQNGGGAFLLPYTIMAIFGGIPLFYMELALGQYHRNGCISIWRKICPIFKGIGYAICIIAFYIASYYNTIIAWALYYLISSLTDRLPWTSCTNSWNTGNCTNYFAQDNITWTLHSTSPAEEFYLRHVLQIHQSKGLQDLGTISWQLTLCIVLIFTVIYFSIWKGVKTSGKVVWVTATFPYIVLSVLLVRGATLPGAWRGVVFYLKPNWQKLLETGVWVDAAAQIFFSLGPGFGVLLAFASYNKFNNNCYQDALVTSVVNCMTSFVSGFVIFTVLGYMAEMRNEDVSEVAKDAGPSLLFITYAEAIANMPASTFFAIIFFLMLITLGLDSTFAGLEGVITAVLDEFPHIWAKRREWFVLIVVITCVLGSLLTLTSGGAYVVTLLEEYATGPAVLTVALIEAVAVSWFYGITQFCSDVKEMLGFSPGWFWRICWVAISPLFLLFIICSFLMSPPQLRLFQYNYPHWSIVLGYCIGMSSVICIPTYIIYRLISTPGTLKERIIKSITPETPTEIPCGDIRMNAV

sound-induced seizures = assay: Sound-induced seizures in Frings mice (reflex epilepsy); assay type: in vivo; conditions: Mus musculus, Frings mice
focal ischemic stroke = assay: Rat model of focal ischemic stroke (vessel occlusion); assay type: in vivo, rats; conditions: i.p. 2 mg/kg 30 min prior to vessel occlusion and 2 mg/kg 3 hr post-occlusion
focal ischemia = assay: Photothrombotic (Rose Bengal) model of focal cerebral ischemia; assay type: in vivo, rat; conditions: 10 mg/kg i.p. at 15 min, 3 hr, and again 6 hr post-occlusion
From the text: In a third model of focal cerebral ischemia in the rat, an ischemic infarct was produced by a photothrombotic method using the dye Rose Bengal.

temporary focal ischemia = assay: Temporary focal cerebral ischemia (middle cerebral artery occlusion, suture withdrawn after 2 hr); assay type: in vivo, rat
Procedure: In a fourth model of focal cerebral ischemia in the rat, the middle cerebral artery was temporarily occluded by passing a small piece of suture thread through the carotid artery to the region of the middle cerebral artery. The suture thread was withdrawn after an ischemic period of 2 hr. Core body temperature was maintained at 37° C. […]

behavior [5] = assay: Behavioral effects in conscious beagle dogs
[6] = tested on: mean arterial pressure, heart rate, ECG; assay: Cardiovascular activity in conscious beagle dogs
behavior [7] = assay: Behavioral effects in conscious male Wistar rats
[8] = 3 mg/kg i.v. (60 sec bolus injection)
[9] = 10 mg/kg i.v. (60 sec bolus injection)

Compound: NC(=O)CC(c1cccc(F)c1)c1cccc(F)c1 [Compound 151, 3,3-Bis(3-fluorophenyl)propanamide]
- IC50 (NMDA receptor): 54.9 µM
- IC50 [1]: > 100 µM
- ED50 [2]: 36.5 mg/kg
- seizure threshold, i.v. Metrazol test (seizure threshold; 36.5 and 108 mg/kg i.p.): a significant increase in seizure threshold
- TD50 (in vivo; ip): 108 mg/kg

Compound: CC(CN)C(c1cccc(Cl)c1)c1cccc(Cl)c1 (stereo not shown) [Compound 46]
- IC50 (NMDA receptor): 0.013 µM
- IC50 [1]: 5.2 µM
- IC50 (L-type calcium channel): 676 nM
- Central muscarinic cholinergic receptor: percent block of [3H]QNB binding ([3]; at 0.1 μM): 33% at.
- Central muscarinic cholinergic receptor: percent block of [3H]QNB binding ([3]; at 10 μM): 0.189% at
- Monoamine uptake binding assays: dopamine uptake binding assay, percent block (dopamine uptake site; at 0.1 μM): 40% at
- Monoamine uptake binding assays: dopamine uptake binding assay, percent block (dopamine uptake site; at 10 μM): 0.1^f97% at
- Monoamine uptake binding assays: norepinephrine uptake binding assay, percent block ([4]; at 0.1 μM): 10^f7% at
- Monoamine uptake binding assays: norepinephrine uptake binding assay, percent block ([4]; at 10 μM): 0.1^g64% at
- Monoamine uptake binding assays: serotonin uptake binding assay, percent block (serotonin uptake site; at 0.1 μM): 10^g10% at
- Monoamine uptake binding assays: serotonin uptake binding assay, percent block (serotonin uptake site; at 10 μM): 0.1^h75% at
- ED50 (sound-induced seizures; ip): 25 mg/kg
- TD50 (in vivo; Frings, ip): 18 to 21 mg/kg
- neuroprotectant activity in a rat model of focal ischemic stroke (focal ischemic stroke): no significant neuroprotectant activity

Compound: CNCCC(c1cccc(F)c1)c1cccc(F)c1 [Compound 60, N-methyl-3,3-bis(3-fluorophenyl)-1-propylamine]
- IC50 (NMDA receptor): 0.416 µM
- IC50 [1]: 0.641 µM
- IC50 (L-type calcium channel): 2300 nM
- Central muscarinic cholinergic receptor: percent block of [3H]QNB binding ([3]; at 0.1 μM): 13% at
- Central muscarinic cholinergic receptor: percent block of [3H]QNB binding ([3]; at 10 μM): 0.193% at
- Monoamine uptake binding assays: norepinephrine uptake binding assay, percent block ([4]; at 0.1 μM): 16%
- Monoamine uptake binding assays: norepinephrine uptake binding assay, percent block ([4]; at 10 μM): at 0.1^g64%
- IC50 ([4]; read-out: Monoamine uptake binding assays: norepinephrine uptake binding assay, IC50): 914 nM
- IC50 (serotonin uptake site; read-out: Monoamine uptake binding assays: serotonin uptake binding assay, IC50): 68 nM
- neuroprotectant activity, photothrombotic model (focal ischemia): no significant neuroprotectant activity
- neuroprotectant activity in a rat model of temporary focal ischemic stroke (temporary focal ischemia; i.p. or i.v. 1 mg/kg 2 hr and again 8 hr post-occlusion): significant neuroprotectant activity
- neuroprotectant activity in a rat model of temporary focal ischemic stroke (temporary focal ischemia; i.v. 1 mg/kg 2 hr post-occlusion): significant neuroprotectant activity
- ED50 (sound-induced seizures; ip): 4.4 mg/kg
- ED50 (sound-induced seizures; oral): 10 mg/kg
- ED50 [2]: 8.17 mg/kg
- seizure threshold, i.v. Metrazol test (seizure threshold; 1 and 4 mg/kg i.p.): no effect on seizure threshold
- seizure threshold, i.v. Metrazol test (seizure threshold; 8 and 17 mg/kg i.p.): a reduction in seizure threshold
- TD50 (in vivo; Frings, ip): 9.2 mg/kg
- TD50 (in vivo; Frings, po): 25.6 mg/kg
- TD50 (in vivo; ip): 17.3 mg/kg
- neuroprotectant activity in a rat model of focal ischemic stroke (focal ischemic stroke): significant neuroprotectant activity
- dose without neuronal vacuolization (neuronal vacuolization; i.p.): 20 mg/kg
- dose without neuronal vacuolization (neuronal vacuolization; i.v.): 10 mg/kg
- behavioral effects (behavior [5]; [8]): a slight increase in respiratory rate
- behavioral effects (behavior [5]; [9]): dilated pupils, whole body tremors, salivation, and urination
- behavioral effects (behavior [5]; 0.3 and 1 mg/kg i.v. (60 sec bolus injection)): no significant behavioral effects
- cardiovascular activity ([6]; 0.3 mg/kg i.v. (60 sec bolus injection)): no significant cardiovascular activity
- mean arterial pressure ([6]; 1 mg/kg i.v. (60 sec bolus injection)): transient increases in mean arterial pressure
- heart rate [6, 8]: transient increases in heart rate
- mean arterial pressure [6, 8]: transient increases in mean arterial pressure
- heart rate [6, 9]: transient increases in heart rate
- mean arterial pressure [6, 9]: larger magnitude and longer duration effects
- changes in the ECG ([6]; doses up to 10 mg/kg i.v. (60 sec bolus injection)): no significant changes in the ECG
- behavioral effects (behavior [7]; 16 mg/kg i.v.): Straub tail, convulsions, and death
- behavioral effects (behavior [7]; dose of a mg/kg i.v.): excitation, stereotypies, increased reactivity to touch, increased muscle tone, and tremor
- behavioral effects (behavior [7]; doses up to 4 mg/kg i.v.): no significant behavioral effects
